Biological target: Kv1.5 (Homo sapiens, UniProt P22460)
Assay: Kv1.5 inhibition assay (IKur inhibitor assay per cited references)
Type: cell-based
Settings: for Kv1.5% inhibition / inhibition at 0.3 µM: at 0.3 μM; for IC50: read-out: Kv1.5 IC50
From the text: Assays to determine the degree of activity of a compound as an IKur inhibitor are well known in the art and are described in references such as J. Gen. Physiol. Apr.; 101 (4):513-43, and Br. J. Pharmacol. 1995 May; 115(2):267-74.

Chain of Kv1.5 (P22460 whole entry): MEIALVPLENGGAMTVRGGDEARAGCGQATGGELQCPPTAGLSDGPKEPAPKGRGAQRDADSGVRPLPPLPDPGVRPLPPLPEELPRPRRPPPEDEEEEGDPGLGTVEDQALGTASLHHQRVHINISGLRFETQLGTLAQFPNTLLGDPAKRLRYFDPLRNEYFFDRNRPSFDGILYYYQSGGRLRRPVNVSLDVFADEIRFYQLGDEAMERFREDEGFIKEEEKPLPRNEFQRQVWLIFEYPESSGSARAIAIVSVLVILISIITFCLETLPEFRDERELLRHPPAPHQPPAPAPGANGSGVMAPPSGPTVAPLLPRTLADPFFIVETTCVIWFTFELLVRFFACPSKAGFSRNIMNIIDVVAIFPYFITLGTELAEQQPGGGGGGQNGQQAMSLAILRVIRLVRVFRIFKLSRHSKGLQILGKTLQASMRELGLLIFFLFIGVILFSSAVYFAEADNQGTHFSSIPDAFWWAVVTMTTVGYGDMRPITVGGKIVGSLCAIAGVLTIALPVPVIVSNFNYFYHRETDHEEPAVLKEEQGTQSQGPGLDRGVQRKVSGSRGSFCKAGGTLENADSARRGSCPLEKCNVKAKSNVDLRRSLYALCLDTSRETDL

Row | Kv1.5% inhibition [%] | inhibition at 0.3 µM [%] | Compound | also measured
1 | 37.5 | – | CC1=C(S(=O)(=O)NCc2ccccc2)C(c2ccc(Cl)c(Cl)c2)n2nc(C(F)(F)F)cc2N1 (single isomer, unassigned) [Example 56 Isomer 2, N-Benzyl-7-(3,4-dichlorophenyl)-5-methyl-2-(trifluoromethyl)-4,7-dihydropyrazolo[1,5-a]pyrimidine-6-sulfonamide] | –
2 | – | 80 | CC1=C(C(=O)N(C)S(=O)(=O)c2c(C)noc2C)C(c2ccc(Cl)c(Cl)c2)n2nc(C)cc2N1 (single isomer, unassigned) [Example 94 Isomer 1, 7-(3,4-Dichlorophenyl)-N-(3,5-dimethylisoxazol-4-ylsulfonyl)-N,2,5-trimethyl-4,7-dihydropyrazolo[1,5-a]pyrimidine-6-carboxamide] | –
3 | 31 | – | CC1=C(S(=O)(=O)N(C)c2ccccc2)C(c2ccc(Cl)c(Cl)c2)n2nc(C(F)(F)F)cc2N1 (single isomer, unassigned) [Example 63 Isomer 2, 7-(3,4-Dichlorophenyl)-N,5-dimethyl-N-phenyl-2-(trifluoromethyl)-4,7-dihydropyrazolo[1,5-a]pyrimidine-6-sulfonamide] | –
4 | – | 16 | COc1ccc(S(=O)(=O)N(C)C(=O)C2=C(C)Nc3cc(C)nn3C2c2ccc(Cl)c(Cl)c2)cc1 (single isomer, unassigned) [Example 81 Isomer 1, 7-(3,4-Dichlorophenyl)-N-(4-methoxyphenylsulfonyl)-N,2,5-trimethyl-4,7-dihydropyrazolo[1,5-a]pyrimidine-6-carboxamide] | –
5 | 79.6 | – | COc1cccc(S(=O)(=O)C2=C(C)Nc3cc(C(F)(F)F)nn3C2c2ccc(Cl)c(Cl)c2)c1 (single isomer, unassigned) [Example 39 Isomer 2, 7-(3,4-Dichlorophenyl)-6-(3-methoxyphenylsulfonyl)-5-methyl-2-(trifluoromethyl)-4,7-dihydropyrazolo[1,5-a]pyrimidine] | –
6 | – | 18.1 | COc1ccc(S(=O)(=O)C2=C(C)Nc3cc(C)nn3C2c2cccc(Cl)c2)cc1 (single isomer, unassigned) [Example 17 Isomer 2, 7-(3-Chlorophenyl)-6-(4-methoxyphenylsulfonyl)-2,5-dimethyl-4,7-dihydropyrazolo[1,5-a]pyrimidine] | –
7 | – | 86 | COc1ccc(S(=O)(=O)N(C)C(=O)C2=C(C)Nc3ccnn3C2c2ccc(Cl)c(Cl)c2)cc1 (racemic) [Example 73, 7-(3,4-Dichlorophenyl)-N-(4-methoxyphenylsulfonyl)-N,5-dimethyl-4,7-dihydropyrazolo[1,5-a]pyrimidine-6-carboxamide] | –
8 | – | 12 | Cc1nc2cc(C(F)(F)F)nn2c(-c2ccc(Cl)c(Cl)c2)c1S(=O)(=O)N(C)c1ccccc1 (racemic) [Example 62, 7-(3,4-Dichlorophenyl)-N,5-dimethyl-N-phenyl-2-(trifluoromethyl)pyrazolo[1,5-a]pyrimidine-6-sulfonamide] | –
9 | – | 83.2 | CC1=C(S(=O)(=O)N(C)c2ccccc2)C(c2ccc(Cl)c(Cl)c2)n2nc(C)cc2N1 (racemic) [Example 60, 7-(3,4-Dichlorophenyl)-N,2,5-trimethyl-N-phenyl-4,7-dihydropyrazolo[1,5-a]pyrimidine-6-sulfonamide] | –
10 | 85 | – | CC1=C(C(=O)N(C)S(=O)(=O)c2ccc(F)cc2)C(c2ccc(Cl)c(Cl)c2)n2nc(C)cc2N1 (single isomer, unassigned) [Example 80 Isomer 2, 7-(3,4-Dichlorophenyl)-N-(4-fluorophenylsulfonyl)-N,2,5-trimethyl-4,7-dihydropyrazolo[1,5-a]pyrimidine-6-carboxamide] | –
11 | – | 36.2 | CC1=C(S(=O)(=O)c2ccc(Cl)cc2)C(c2ccc(Cl)c(Cl)c2)n2nc(C(F)(F)F)cc2N1 (single isomer, unassigned) [Example 4 Isomer 2, 6-(4-Chlorophenylsulfonyl)-7-(3,4-dichlorophenyl)-5-methyl-2-(trifluoromethyl)-4,7-dihydropyrazolo[1,5-a]pyrimidine] | –

Second part, the molecule before the results:

Row | Compound | Kv1.5% inhibition [%] | inhibition at 0.3 µM [%] | also measured
12 | CC1=C(S(=O)(=O)c2ccc(Cl)cc2)C(c2ccc(Cl)c(Cl)c2)n2nc(C(F)(F)F)cc2N1 (single isomer, unassigned) [Example 4 Isomer 1, 6-(4-Chlorophenylsulfonyl)-7-(3,4-dichlorophenyl)-5-methyl-2-(trifluoromethyl)-4,7-dihydropyrazolo[1,5-a]pyrimidine] | – | – | IC50: 180 nM
13 | CC1=C(C(=O)N(C)S(=O)(=O)C(C)C)C(c2ccc(Cl)c(Cl)c2)n2nc(C(F)(F)F)cc2N1 (single isomer, unassigned) [Example 96 Isomer 2, 7-(3,4-Dichlorophenyl)-N-(isopropylsulfonyl)-N,5-dimethyl-2-(trifluoromethyl)-4,7-dihydropyrazolo[1,5-a]pyrimidine-6-carboxamide] | 56 | – | –
14 | CC1=C(C(=O)N(C)S(=O)(=O)c2ccc(Cl)cc2)C(c2ccc(Cl)c(Cl)c2)n2nc(C(F)(F)F)cc2N1 (racemic) [Example 89, N-(4-Chlorophenylsulfonyl)-7-(3,4-dichlorophenyl)-N,5-dimethyl-2-(trifluoromethyl)-4,7-dihydropyrazolo[1,5-a]pyrimidine-6-carboxamide] | – | 40 | –
15 | CC1=C(C(=O)N(C)S(=O)(=O)C2CC2)C(c2ccc(Cl)c(Cl)c2)n2nc(C(F)(F)F)cc2N1 (single isomer, unassigned) [Example 98 Isomer 2, N-(Cyclopropylsulfonyl)-7-(3,4-dichlorophenyl)-N,5-dimethyl-2-(trifluoromethyl)-4,7-dihydropyrazolo[1,5-a]pyrimidine-6-carboxamide] | – | – | IC50: 200 nM
16 | CC1=C(S(=O)(=O)c2ccc(Cl)cc2)C(c2cncnc2)n2nc(C(F)(F)F)cc2N1 (single isomer, unassigned) [Example 50 Isomer 2, 6-(4-Chlorophenylsulfonyl)-5-methyl-7-(pyrimidin-5-yl)-2-(trifluoromethyl)-4,7-dihydropyrazolo[1,5-a]pyrimidine] | 14.7 | – | –
17 | COc1ccc(S(=O)(=O)C2=C(C)Nc3cc(C(F)(F)F)nn3C2c2ccc(Cl)cc2)cc1 (single isomer, unassigned) [Example 25 Isomer 1, 7-(4-Chlorophenyl)-6-(4-methoxyphenylsulfonyl)-5-methyl-2-(trifluoromethyl)-4,7-dihydropyrazolo[1,5-a]pyrimidine] | – | 85.6 | –
18 | CC1=C(C(=O)N2CCCCS2(=O)=O)C(c2ccc(Cl)c(Cl)c2)n2nc(C)cc2N1 (single isomer, unassigned) [Example 84 Isomer 2] | 7 | – | –
19 | CC1=C(S(=O)(=O)N2CCCC2)C(c2ccc(Cl)c(Cl)c2)n2nc(C)c(Cl)c2N1 (single isomer, unassigned) [Example 69 Isomer 2, 3-Chloro-7-(3,4-dichlorophenyl)-2,5-dimethyl-6-(pyrrolidin-1-ylsulfonyl)-4,7-dihydropyrazolo[1,5-a]pyrimidine] | 40 | – | –
20 | CC1=C(S(=O)(=O)N2CCCC2)C(c2ccc(Cl)c(Cl)c2)n2nc(C)nc2N1 (racemic) [Example 68, 7-(3,4-Dichlorophenyl)-2,5-dimethyl-6-(pyrrolidin-1-ylsulfonyl)-4,7-dihydro-[1,2,4]triazolo[1,5-a]pyrimidine] | – | 7 | –
21 | CC1=C(S(=O)(=O)c2ccc(Cl)cc2)C(CC(C)C)n2nc(C(F)(F)F)cc2N1 (single isomer, unassigned) [Example 45 Isomer 1, 6-(4-Chlorophenylsulfonyl)-7-isobutyl-5-methyl-2-(trifluoromethyl)-4,7-dihydropyrazolo[1,5-a]pyrimidine] | – | – | IC50: 249 nM
22 | CCCS(=O)(=O)N(C)C(=O)C1=C(C)Nc2cc(C(F)(F)F)nn2C1c1ccc(Cl)c(Cl)c1 (single isomer, unassigned) [Example 91 Isomer 2, 7-(3,4-Dichlorophenyl)-N,5-dimethyl-N-(propylsulfonyl)-2-(trifluoromethyl)-4,7-dihydropyrazolo[1,5-a]pyrimidine-6-carboxamide] | 52 | – | –
23 | CC1=C(S(=O)(=O)N2CCCC2)C(c2ccc(Cl)cc2)n2nc(C(F)(F)F)cc2N1 (single isomer, unassigned) [Example 67 Isomer 2, 7-(4-Chlorophenyl)-5-methyl-6-(pyrrolidin-1-ylsulfonyl)-2-(trifluoromethyl)-4,7-dihydropyrazolo[1,5-a]pyrimidine] | 54 | – | –
24 | CC1=C(S(=O)(=O)c2ccc(F)cc2)C(c2ccc(Cl)c(Cl)c2)n2nc(C(F)(F)F)cc2N1 (single isomer, unassigned) [Example 12 Isomer 1, 7-(3,4-Dichlorophenyl)-6-(4-fluorophenylsulfonyl)-5-methyl-2-(trifluoromethyl)-4,7-dihydropyrazolo[1,5-a]pyrimidine] | – | – | IC50: 142 nM
25 | CC1=C(S(=O)(=O)N2CCCC2)C(c2ccc(Cl)c(Cl)c2)n2nc(C(F)(F)F)cc2N1 (single isomer, unassigned) [Example 59 Isomer 2, 7-(3,4-Dichlorophenyl)-5-methyl-6-(pyrrolidin-1-ylsulfonyl)-2-(trifluoromethyl)-4,7-dihydropyrazolo[1,5-a]pyrimidine] | 86.4 | – | –
26 | COc1ccc(S(=O)(=O)C2=C(C)Nc3cc(C)nn3C2c2ccc(C)c(F)c2)cc1 (single isomer, unassigned) [Example 24 Isomer 1, 7-(3-Fluoro-4-methylphenyl)-6-(4-methoxyphenylsulfonyl)-2,5-dimethyl-4,7-dihydropyrazolo[1,5-a]pyrimidine] | – | – | IC50: 148 nM
27 | CC1=C(S(=O)(=O)c2ccccc2)C(c2ccc(Cl)c(Cl)c2)n2nc(C)cc2N1 (single isomer, unassigned) [Example 3 Isomer 2, 7-(3,4-Dichlorophenyl)-2,5-dimethyl-6-(phenylsulfonyl)-4,7-dihydropyrazolo[1,5-a]pyrimidine] | – | – | IC50: 293 nM
28 | CC1=C(S(=O)(=O)c2ccc(C(F)(F)F)cc2)C(c2ccc(Cl)c(Cl)c2)n2nc(C)cc2N1 (single isomer, unassigned) [Example 9 Isomer 1, 7-(3,4-Dichlorophenyl)-2,5-dimethyl-6-(4-(trifluoromethyl)phenylsulfonyl)-4,7-dihydropyrazolo[1,5-a]pyrimidine] | – | – | IC50: 234 nM

Reference: patent publication US7507730B2, “Substituted pyrazolo[1,5-a]pyrimidines as potassium channel activators” (Bristol-Myers Squibb Company, priority 2005, dated 2009)
